Like-named read-outs stand apart in the source and are kept apart here.
Legend:
[1] = logP(neutral) by reverse phase chromatography, potassium dihydrogen phosphate / acetonitrile; format: physicochemical
[2] = tested on: Myzus persicae resistant to organophosphorus pesticide and carbamate agent; assay: Test to Myzus persicae resistant to organophosphorus pesticide and carbamate agent (egg plant seedlings); format: in vivo; conditions: 168 h, effective ingredient concentration 100 ppm, seven days after spraying, read-out: pesticide effect, insect mortality
Experimental: Test to Myzus persicae resistant to organophosphorus pesticide and carbamate agent
(§1) Solvent: dimethylformamide 3 parts by weight Emulsifier: polyoxyethylene alkyl phenyl ether 1 part by weight
(§2) In order to prepare preparations of suitable active compounds, 1 part by weight of each of the active compounds was blended with the above amount of the solvent containing the above amount of the emulsifier, and the resulting mixture was diluted to a prescribed concentration with water.
On egg plant seedlings planted in a plastic pot of a diameter of 6 cm, 30 bred Myzus persicae resistant to organophosphorus pesticide and carbamate agent per one seedling were inoculated. After 1 day elapsed since the inoculation, a sufficient amount of the solution diluted with water and having a prescribed concentration of the active compound was sprayed. After the spraying, the pot was allowed to stand in a greenhouse of 28° C. After seven days elapsed since the spraying, insect mortality was calculated. The test was carried out twice.

[3] = tested on: Spodoptera litura third instar larvae; assay: Test to larva of Spodoptera litura (sweet potato leaf dip); format: in vivo; conditions: foliar, 168 h, read-out: insect mortality
Experimental: Test to Larva of Spodoptera litura
as §1, §2
Leaves of sweet potato were immersed in the tested liquid medication of a prescribed concentration diluted with water. After air drying of the liquid medication, the leaves were put into a petri dish of a diameter of 9 cm, and 10 Spodoptera litura third instar larvae were released in the petri dish, and the petri dish was placed in a constant temperature room of 25° C. Two days later and four days later, leaves of sweet potato were added. Seven days later, the number of dead insects was examined, and insect mortality was calculated.
In the present test, results of 2 petri dishes for each compound were averaged.

Myzus persicae = assay: Test to Myzus persicae (Brassica pekinensis leaf disc spray); format: in vivo; conditions: foliar, read-out: pesticide effect, insect mortality
Experimental: Solvent: acetone 78.0 parts by weight and dimethylformamide 1.5 parts by weight Emulsifier: alkyl aryl polyglycol ether 0.5 parts by weight
as §2
On a leaf disc of Brassica pekinensis, Myzus persicae including all growth stage was inoculated. The solution diluted with water and having a prescribed concentration of the active compound was sprayed by a spray gun. Insect mortality was calculated after prescribed days elapsed. 100% insect mortality means that all the individuals died, and 0% insect mortality means that all the individuals were alive.

[4] = logP(acid) by reverse phase (C18) chromatography at pH 2.3; format: physicochemical; conditions: pH 2.3
[5] = potassium dihydrogen phosphate / acetonitrile
[6] = 0.0025M potassium dihydrogen phosphate aqueous solution / acetonitrile, linear gradient 10-95% acetonitrile
[7] = Spodoptera litura third instar larvae, active ingredient concentration 20 ppm, seven days later, 25° C.
[8] = reverse phase (C18) chromatography, pH2.3, 0.1% phosphoric acid / acetonitrile gradient 10-95%, read-out: logP (acid)

**Q.** Which melting point does the source give for `CCN(CC)C(=O)c1c(Cl)cccc1C(=O)Nc1ccc(Cn2nc(C(F)(F)F)cc2C(F)(F)F)cc1C` here?
**A.** 105 to 107 °C

**Q.** For `Cc1cc(Cn2nc(C(F)(F)F)cc2C(F)(F)F)ccc1NC(=O)c1ccccc1C(=O)NC(C)C`, which melting point is on record?
**A.** 170 to 172 °C

**Q.** Which melting point does the source give for `Cc1cc(Cn2nc(C(F)(F)F)cc2C(F)(F)F)ccc1NC(=O)c1cccc(Cl)c1C(=O)NC(C)(C)C(=O)O` here?
**A.** 179 to 184 °C

**Q.** Which melting point does the source give for `CCC(C)NC(=O)c1c(Cl)cccc1C(=O)Nc1ccc(Cn2nc(C(F)(F)F)cc2C(F)(F)F)cc1C` (centres unmarked) here?
**A.** 187 to 188 °C

**Q.** Which melting point does the source give for `CCC(C)NC(=O)c1cccc(Cl)c1C(=O)Nc1ccc(Cn2nc(C(F)(F)F)cc2C(F)(F)F)cc1C` (centres unmarked) here?
**A.** 211 to 212 °C

**Q.** For `Cc1cc(Cn2nc(C(F)(F)C(F)(F)F)nc2C(F)(F)F)ccc1NC(=O)c1cccc(Cl)c1C(=O)NC(C)(C)CO`, which melting point is on record?
**A.** 105 to 110 °C

**Q.** For `Cc1cc(Cn2nc(C(F)(F)C(F)(F)F)nc2C(F)(F)F)ccc1NC(=O)c1cccc(Cl)c1C(=O)NC(C)(C)C=NO`, which melting point is on record?
**A.** 203 to 206 °C

**Q.** For `CSC[C@H](C)NC(=O)c1c(Cl)cccc1C(=O)Nc1ccc(Cn2c(C)nnc2C(F)(F)F)cc1C`, which melting point is on record?
**A.** 168 to 170 °C

**Q.** Which melting point does the source give for `Cc1cc(Cn2nc(C(F)(F)C(F)(F)F)nc2C(F)(F)F)ccc1NC(=O)c1cccc(-c2cc(C(F)(F)F)cc(C(F)(F)F)c2)c1C(=O)N[C@@H](C)CS(C)(=O)=O` here?
**A.** 201 °C

**Q.** Which melting point does the source give for `CC(C)NC(=O)c1ccccc1C(=O)Nc1ccc(Cn2nc(C(F)(F)F)cc2C(F)(F)F)cc1` here?
**A.** 176 to 178 °C

**Q.** For `Cc1nc(Cn2cc(C(F)(F)C(F)(F)F)c(C(F)(F)C(F)(F)F)n2)ccc1NC(=O)c1cccc(I)c1C(=O)NC(C)C[S+](C)[O-]` (mixture of isomers) [13-159], which “logP (neutral)” value [1, 5] is on record?
**A.** 3.08

**Q.** For `CSC[C@H](C)NC(=O)c1c(C(=O)Nc2ccc(Cn3nc(C(F)(F)F)cc3C(F)(F)F)nc2C)ccc(F)c1Br` [9-10], which “logP (neutral)” value [1, 6] is on record?
**A.** logP (neutral) 3.74

**Q.** Which “logP (neutral)” value [1, 6] does the source give for `Cc1cc(Cn2nc(C(F)(F)C(F)(F)F)nc2C(F)(F)F)ccc1NC(=O)c1ccc(C(F)(F)F)c(Cl)c1C(=O)N[C@@H](C)C[S+](C)[O-]` (some centres unmarked) [9-24] here?
**A.** logP (neutral) 3.13

**Q.** Which “logP (neutral)” value [1, 5] does the source give for `Cc1nc(Cn2nc(C(F)(F)F)cc2C(F)(F)F)ccc1NC(=O)c1cc(Cl)cc(Cl)c1C(=O)N[C@@H](C)CS(C)(=O)=O` [10-3] here?
**A.** 3.10

**Q.** Which “logP (neutral)” value [1, 5] does the source give for `Cc1cc(Cn2nc(C(F)(F)C(F)(F)F)nc2C(F)(F)F)ccc1NC(=O)c1c(Cl)ccc(Cl)c1C(=O)N[C@@H](C)C[S+](C)[O-]` (some centres unmarked) [11-28] here?
**A.** logP (neutral) 2.90

**Q.** Which results are given for `CSC[C@H](C)NC(=O)c1c(OC(F)(F)F)cccc1C(=O)Nc1ccc(Cn2nc(C(F)(F)F)cc2C(F)(F)F)cc1C` [13-13, N^1-(4-{[3,5-bis(trifluoromethyl)-1H-pyrazol-1-yl]methyl}-2-methylphenyl)-N^2-[(1S)-1-methyl-2-(methylthio)ethyl]-3-(trifluoromethoxy)-1,2-benzenedicarboxamide]?
**A.** mortality at 100 ppm [2]: 100%; mortality at 20 ppm ([3]; Spodoptera litura): 100%; mortality at 100 g/ha (Myzus persicae): ≥ 70%

**Q.** With `COC(=O)CNC(=O)C(C)(C)NC(=O)c1c(Cl)cccc1C(=O)Nc1ccc(Cn2nc(C(F)(F)F)cc2C(F)(F)F)cc1C` [13-121, methyl N-{2-[(4-{[3,5-bis(trifluoromethyl)-1H-pyrazol-1-yl]methyl}-2-methylphenyl)carbamoyl]-6-chlorobenzoyl)-2-methylalanyl glycinate] as the compound, how does the mortality at 20 ppm [3, 7] read?
**A.** 100%

**Q.** For `CSC[C@H](C)NC(=O)c1c(Br)cccc1C(=O)Nc1ccc(Cn2nc(C(F)(F)C(F)(F)C(F)(F)F)cc2C(F)(F)F)nc1C` [13-128], which “logP (neutral)” value [1, 5] is on record?
**A.** 4.42

**Q.** For `Cc1cc(Cn2cc(C(F)(F)C(F)(F)F)c(C(F)(F)C(F)(F)F)n2)ccc1NC(=O)c1cccc(Br)c1C(=O)N[C@@H](C)CS(C)(=O)=O` [13-140, N^1-(4-{[3,4-bis(pentafluoroethyl)-1H-pyrazol-1-yl]methyl}-2-methylphenyl)-3-bromo-N^2-[(1S)-1-methyl-2-(methylsulfonyl)ethyl]-1,2-benzenedicarboxamide], which mortality at 20 ppm [3, 7] is on record?
**A.** 100%

**Q.** With `CON=C(c1cn(Cc2ccc(NC(=O)c3cccc(I)c3C(=O)N[C@@H](C)CSC)c(C)c2)nc1C(F)(F)F)C(F)(F)F` [13-147, 3-iodo-N^2-[(1S)-1-methyl-2-(methylthio)ethyl]-N^1-[2-methyl-4-({4-[2,2,2-trifluoro-N-methoxyethanimidoyl]-3-(trifluoromethyl)-1H-pyrazol-1-yl}methyl)phenyl]-1,2-benzenedicarboxamide] as the compound, how does the mortality at 20 ppm [3, 7] read?
**A.** 100%

**Q.** With `CSC[C@H](C)NC(=O)c1c(C(=O)Nc2ccc(Cn3nc(C(F)(F)F)cc3C(F)(F)F)nc2C)cccc1S(=O)(=O)N(C)C` [13-287] as the compound, how does the “logP (neutral)” value [1, 5] read?
**A.** 3.42

**Q.** Which mortality at 20 ppm [3, 7] does the source give for `CCSC[C@H](C)NC(=O)c1c(SC)cccc1C(=O)Nc1ccc(Cn2nc(C(F)(F)F)cc2C(F)(F)F)cc1C` [13-291, N^1-(4-{[3,5-bis(trifluoromethyl)-1H-pyrazol-1-yl]methyl}-2-methylphenyl)-N^2-[(1S)-1-methyl-2-(ethylthio)ethyl]-3-methylthio-1,2-benzenedicarboxamide] here?
**A.** 100%

**Q.** What about the mortality at 100 g/ha (Myzus persicae; spraying amount 100 g/ha) of the same compound?
**A.** ≥ 70%

**Q.** Which mortality at 20 ppm [3, 7] does the source give for `Cc1cc(Cn2nc(C(F)(F)C(F)(F)F)nc2C(F)(F)F)ccc1NC(=O)c1cccc(Cl)c1C(=O)NC(C)(C)C=O` [14-130, 3-chloro-N^2-(1,1-dimethyl-2-oxoethyl)-N^1-(2-methyl-4-{[3-(pentafluoroethyl)-5-(trifluoromethyl)-1H-1,2,4-triazol-1-yl]methyl}phenyl)-1,2-benzenedicarboxamide] here?
**A.** 100%

**Q.** Which “logP (neutral)” value [1, 5] does the source give for `CSC[C@H](C)NC(=O)c1c(Cl)cccc1C(=O)Nc1ccc(Cn2nc(C(F)(F)F)n(C)c2=O)nc1C` [14-320] here?
**A.** 2.16

**Q.** Which mortality at 100 ppm [2] does the source give for `CSC[C@H](C)NC(=O)c1c(Cl)cccc1C(=O)Nc1ccc(CN2N=C(C(F)(F)C(F)(F)F)NC2C(F)(F)F)cc1C` (stereo partly drawn) [16-4, 3-chloro-N^1-(2-methyl-4-{[3-(pentafluoroethyl)-5-(trifluoromethyl)-4,5-dihydro-1H-1,2,4-triazol-1-yl]methyl}phenyl)-N^2-[(1S)-1-methyl-2-(methylthio)ethyl]-1,2-benzenedicarboxamide] here?
**A.** 100%

**Q.** What about the mortality at 20 ppm ([3]; Spodoptera litura) of the same compound?
**A.** 100%

**Q.** With `CSC[C@H](C)NC(=O)c1c(Cl)cccc1C(=O)Nc1ccc(CN2N=C(C(F)(F)C(F)(F)F)N(C(C)=O)C2C(F)(F)F)cc1C` (stereo partly drawn) [16-6, N^1-(4-{[4-acetyl-3-(pentafluoroethyl)-5-(trifluoromethyl)-4,5-dihydro-1H-1,2,4-triazol-1-yl]methyl}-2-methylphenyl)-3-chloro-N^2-[(2S)-1-(methylsulfanyl)propan-2-yl]-1,2-benzenedicarboxamide] as the compound, how does the mortality at 20 ppm [3, 7] read?
**A.** 100%

**Q.** For `Cc1nc(Cn2cnc(C(F)(F)C(F)(F)C(F)(F)F)n2)ccc1N` [SYNTHESIS EXAMPLE 84-2], which chromatographic logP [4, 8] is on record?
**A.** 1.52

**Q.** With `Cc1nc(Cn2nnc(C(F)(F)F)n2)ccc1[N+](=O)[O-]` [SYNTHESIS EXAMPLE 85-1] as the compound, how does the chromatographic logP [4] read?
**A.** 2.85

**Q.** With `Cc1nc(Cn2nnc(C(F)(F)F)n2)ccc1N` [SYNTHESIS EXAMPLE 85-2] as the compound, how does the chromatographic logP ([4]; reverse phase (C18) chromatography column, reverse phase (C18) chromatography, pH2.3, 0.1% phosphoric acid / acetonitrile gradient 10-95%, read-out: logP (acid)) read?
**A.** 1.18

**Q.** For `Cc1nc(Cn2nnc(C(F)(F)C(F)(F)C(F)(F)F)n2)ccc1[N+](=O)[O-]` [SYNTHESIS EXAMPLE 86-1], which chromatographic logP [4, 8] is on record?
**A.** 3.78

**Q.** For `Cc1nc(Cn2nnc(C(F)(F)C(F)(F)C(F)(F)F)n2)ccc1N` [SYNTHESIS EXAMPLE 86-2], which chromatographic logP [4, 8] is on record?
**A.** 2.3
